In patent publication US4835157A, “Thieno- and furopyrimidine-2,4-dione piperidine derivatives as serotonin antagonists and alpha adrenergic blocking agents” (Ortho Pharmaceutical Corporation, priority 1988, dated 1989):
Like-named read-outs stand apart in the source and are kept apart here.

Legend:
5HT1A receptor = molecular target: T1, 5HT1A receptor (Rattus norvegicus, UniProt P19327); assay: Brain Serotonin (5HT1A) radioreceptor Assay (3H-8-OH DPAT displacement, rat frontal cortex membranes); assay type: binding; conditions: for inhibition at 1 µM: read-out: Brain 5-HT1 Receptor % displaced (% inhibition)
T1 construct: Membrane fragments were prepared from prefrontal cortex; from tissue; host or cells: prefrontal/frontal cortex of female rats (about 150 g), membrane fragments
T1 sequence (P19327 1-422): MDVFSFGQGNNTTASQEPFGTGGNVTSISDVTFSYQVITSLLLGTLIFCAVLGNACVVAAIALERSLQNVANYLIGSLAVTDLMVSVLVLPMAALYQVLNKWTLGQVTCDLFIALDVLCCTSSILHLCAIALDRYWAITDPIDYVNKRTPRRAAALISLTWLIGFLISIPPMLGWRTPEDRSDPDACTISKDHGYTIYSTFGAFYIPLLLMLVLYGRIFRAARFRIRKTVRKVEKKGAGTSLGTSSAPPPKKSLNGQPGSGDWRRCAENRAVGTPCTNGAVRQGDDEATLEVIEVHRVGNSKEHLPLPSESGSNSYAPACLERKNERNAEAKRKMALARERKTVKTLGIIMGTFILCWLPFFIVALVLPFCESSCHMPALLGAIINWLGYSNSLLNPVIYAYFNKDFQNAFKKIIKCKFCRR
Experimental: Brain Serotonin (5HT1A) radioreceptor Assay
The text objects of this procedure were rat frontal cortex membranes. Membrane fragments were prepared from prefrontal cortex disected from brains obtained from female rats (≈150 g). The 5HT1A sites were labeled with ^3 H-8-OH dipropylaminotetralin (8-OH-DPAT). Membrane fragments, ^3 H-8-OH DPAT, TRIS buffer (pH 7.4) and unlabeled compound were incubated for 10 minutes at 37° C. and then for 10 minutes at 4° C. Separation of bound from unbound ^3 H-8-OH DPAT was performed by vacuum filtration on a glass fiber disc. The ability of a compound to compete with ^3 H-8-OH DPAT for binding sites is a measure of the affinity of the compound for the 5HT1A receptor. Specific binding was determined by the difference between total counts bound and the counts bound in the presence of […] 5-hydroxytryptamine.

[1] = tested on: Serotonin-Induced Smooth Muscle Contractions (rabbit thoracic aorta); assay: Inhibition of Serotonin-Induced Smooth Muscle Contractions (isolated thoracic aorta strips); assay type: cell-based; conditions: concentration shifting the serotonin dose curve 10x to the right, 10 min preincubation, read-out: 5-HT-Induced Smooth Muscle Contraction DR10
Experimental: Inhibition of Serotonin-Induced Smooth Muscle Contractions
The test objects of this Example were canines and rabbits. Rabbits were sacrificed by T-61 injection and the thoracic aorta was removed immediately. The aorta was placed in warmed, oxygenated Krebs-Henseleit buffer. After the tissue was cleaned, a 2-3 mm wide strip was cut helically from each aorta. A strip of approximately 5 cm was suspended in Krebs-Henseleit buffer at 37° C. in a 25 ml tissue bath and the tissues equilibrated at an initial resting tension of 4 g for 90-120 minutes. An initial serotonin dose curve, 0.01-10 μM was then done on each tissue, followed by a 60 minute washout and reequilibration. The test drug was then added for a 10 minute preincubation and another serotonin dose curve was done using 0.01-100 μM.
Results are expressed as DR10 values. This is the concentration of the compound required to shift the serotonin dose curve 10x to the right, i.e., the concentration of antagonist at which the concentration of serotonin required for 50% maximal contraction is increased ten-fold.

[2] = tested on: serotonin-induced platelet aggregation; assay: Platelet Aggregation Assay (serotonin-induced); assay type: cell-based; conditions: human plasma, serotonin 5 μM
Experimental: Platelet Aggegation Assay
Human blood was collected into tubes containing sodium citrate. The plasma was separated by centrifugation and was used as the source of platelets. Serotonin (5 μM) was used as the agonist to induce platelet aggregation. A control aggregation curve (as measured by the decrease in absorbance in transmitted light) was obtained in the presence of serotonin and in the absence of test compound. The test compound was added to an identical sample in a cuvette for one minute before addition of serotonin to yield the experimental curve.

[3] = tested on: alpha1 adrenergic receptor; assay: Alpha1 Blockade in vivo (inhibition of phenylephrine pressor response); set-up: species or system spontaneously hypertensive rats (SHR); conditions: anesthetized, vagotomized SHR; i.v.
Experimental: The potency of these compounds as alpha1 adrenergic antagonists was determined using the following procedure: adult male spontaneously hypertensive rats (SHR) were anesthetized and bilaterally vagotomized. A carotid artery and jugular vein were cannulated for monitoring mean arterial blood pressure and drug administration, respectively. The percent inhibition of alpha1 adrenergic receptor activation was quantified by measuring pressor responses to phenylephrine before and after antagonist treatment. […] Compounds were tested to the limits of their solubility for intravenous administration.

serotonin receptors = assay: Inhibition of 5-HTP-Induced Head Twitching; assay type: in vivo; conditions: male CD1 mice; for Inhibit. of 5-HTP-Head Twitch ED50: 5-HTP 160 mg/kg i.v. after one hour
Experimental: Inhibition of 5-HTP-Induced Head Twitching
This test detects compounds with antagonistic activity of serotonin receptors in vivo, and is a modified procedure of Corne, Pickering and Warner, Brit. J. Pharmacol. 20, 106 (1963). Groups of male CD1 mice were fasted overnight but allowed water ad libitum. They were deprived of water during the course of the experiment. The mice were weighed and treated orally or parenterally with the test compound in a dose volume of 10 ml/kg. Doses of test substance were calculated based upon the active compound. Substances for oral administration were dissolved or suspended in a 0.5% aqueous methylcellulose (15 centipoises) vehicle containing 4 ml of Tween 80/l.
A dose of 160 mg/kg of L-5-hydroxytryptophan (5-HTP) was administered i.v. in a dose volume of 5 ml/kg after one hour. The test mouse was restrained in a rodent restrainer that allowed the tail to extend out the back. The tail was then placed in tepid (but not scalding) water for approximately 10 seconds to soften the skin and dilate the tail vein. A 1 ml syringe and 25 gauge (5/8 inch) needle was used to administer the 5-HTP solution into one of the lateral tail veins.
A timer was started after dosing with 5-HTP to the first animal of the test group. […] A head twitch involves the head, neck and ears and has the appearance of an exaggerated pinal reflex. The number of head twitches for each individual vehicle-treated mouse were recorded to establish a historical baseline.
The active compounds in the test block the twitch response (the response rated all or none).

5HT2 [4] = molecular target: T2, 5HT2 (Rattus norvegicus, UniProt P14842); assay: Brain Serotonin (5-HT2) Radioreceptor Assay (3H-ketanserin displacement, rat frontal cortex membranes); assay type: binding; set-up: dissected from brains obtained from female rats; from tissue; host or cells: frontal cortex of female rats (about 150 g), membrane fragments; conditions: 15 min at 37° C
T2 sequence (P14842 whole entry, the tested form may be a part): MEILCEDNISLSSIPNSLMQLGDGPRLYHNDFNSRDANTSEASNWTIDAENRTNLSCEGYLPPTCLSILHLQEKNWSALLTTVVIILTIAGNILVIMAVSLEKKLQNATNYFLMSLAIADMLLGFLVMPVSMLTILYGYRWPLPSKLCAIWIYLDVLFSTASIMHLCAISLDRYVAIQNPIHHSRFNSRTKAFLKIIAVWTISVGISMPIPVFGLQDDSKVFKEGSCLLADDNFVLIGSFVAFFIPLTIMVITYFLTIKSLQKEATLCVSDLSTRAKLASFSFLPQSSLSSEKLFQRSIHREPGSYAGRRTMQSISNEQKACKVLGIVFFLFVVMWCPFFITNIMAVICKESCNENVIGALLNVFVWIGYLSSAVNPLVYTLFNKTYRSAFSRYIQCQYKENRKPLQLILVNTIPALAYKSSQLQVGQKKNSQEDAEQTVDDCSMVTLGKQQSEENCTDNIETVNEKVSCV
Experimental: Brain Serotonin (5-HT2) Radioreceptor Assay
The test objects of this Example were rat frontal cortex membranes. Mebrane fragments were prepared from the frontal cortex dissected from brains obtained from female rats (≈150 g). […] Compound bound to the receptor site was separated from the remaining unbound compound by vacuum filtration. […] Specific binding was determined by the difference between total counts bound and counts bound in the presence of 10^-6 M methysergide.

5HT2 [5] = molecular target: T2, 5HT2; assay: 5HT2 Blockade in vivo (antagonism of 5HT induced pressor responses); set-up: Spontaneously hypertensive rats were anesthetized with sodium pentobarbital; from tissue; host or cells: whole animal: anesthetized spontaneously hypertensive rats (vasculature); species or system spontaneously hypertensive rats; conditions: for ED50: rat, iv, read-out: 5-HT-Induced Pressor Response ED50; for 5-HT-Induced Pressor Response ED50: anesthetized SHR, 5HT 100 μg/kg i.v., cumulative doses of antagonist
Experimental: Antagonism of 5HT induced pressor responses was used to assess 5HT2 blockade in vivo. Spontaneously hypertensive rats were anesthetized with sodium pentobarbital (50 mg/kg, i.p.). The right carotid artery and vein were cannulated for pressure recording and drug injection, respectively. The trachea was cannulated, the rat placed on a respirator and ventilated with room air at 50-60 breaths/minute. Rats were pretreated with prazosin hydrochloride (1 mg/kg, i.v., blous) and pentolinium tartrate (5 mg/kg, i.v., bolus). After 10 minutes equilibration, the rat was challenged with 5HT (100 μg/kg) which elevates mean arterial pressure (MAP) 60-100 mmHg; non-responsive rats were discarded.
After a baseline had been reestablished, bolus injections of 5HT (100 μg/kg, i.v.) were given and the MAP responses were evaluated both pre- and post-drug administration. 5HT challenges were repeated 10 minutes after each dose of antagonist. Up to three cumulative doses of the antagonist were given to a single animal.

[6] = tested on: Spontaneously Hypertensive Rats (SHR); assay: Antihypertensive Activity in Spontaneously Hypertensive Rats (SHR); assay type: in vivo, rat; conditions: @ 5 mg/kg p.o., 4 h monitoring
Experimental: Antihypertensive Activity in Spontaneously Hypertensive Rats (SHR)
Antihypertensive activity was assessed using the following procedure. Adult male SHR were surgically prepared with arterial cannuli under light ether anesthesia and given 60-90 minute post-surgical recovery. Mean arterial pressure (MAP) was continuously monitored via the arterial line. After baseline MAP was recorded, groups of 3-6 SHR received a single dose of drug or vehicle (0.5% methylcellulose) administered by gavage at doses of 1 to 5 mg/kg.MAP was monitored for four hours post-dosing.
Maximal changes in MAP were reported.

Row | Structure (SMILES) | inhibition at 1 µM (5HT1A receptor; 3H-8-OH DPAT) | IC (10-fold shift) ([1]; Oryctolagus cuniculus, 10 min) | IC50 ([2]; Platelet) | Phenylephrine-Induced Pressor Response ED50 [3] | Inhibit. of 5-HTP-Head Twitch (result in words) (serotonin receptors; @ 10 (mg/kg, p.o.)) | IC50 (5HT2 [4]) | ED50 (5HT2 [5]) | IC (10-fold shift) [1] | IC50 [2] | Inhibit. of 5-HTP-Head Twitch ED50 (serotonin receptors) | 5-HT-Induced Pressor Response ED50 (5HT2 [5]) | IC50 (5HT1A receptor) | Antihypertensive Activity, p.o., % AMAP (maximal change in mean arterial pressure) [6] | IC50 (5HT1A receptor; rat frontal cortex membranes, 3H-8-OH DPAT, pH 7.4, read-out: Brain 5-HT1 Receptor IC50)
1 | O=c1[nH]c2cocc2c(=O)n1CCN1CCC(=C(c2ccc(F)cc2)c2ccc(F)cc2)CC1 [Example 9, 3-[2-[4-[Bis(4-fluorophenyl)methylene]piperidin-1-yl]ethyl]furo[3,4-d]pyrimidine-2,4-dione] | 12% | 0.01 µM | 6250 nM | > 10 mg/kg | Inact. | 4.2 nM | 0.02 mg/kg | – | – | – | – | – | – | –
2 | Cc1nc2sccn2c(=O)c1CCN1CCC(=C(c2ccc(F)cc2)c2ccc(F)cc2)CC1 [Ritanserin, reference compound] | – | – | – | 5.36 mg/kg | – | – | – | 1.0 nM | 1200 nM | 0.32 mg/kg, p.o. | 0.008 mg/kg | – | – | –
3 | O=C(c1ccc(F)cc1)C1CCN(CCn2c(=O)[nH]c3ccccc3c2=O)CC1 [Ketanserin, reference compound] | – | – | 32 nM | 1.08 mg/kg | – | – | – | – | – | 0.67 mg/kg, p.o. | 0.013 mg/kg | 24500 nM | -33% | –
4 | Cn1c(=O)n(CCN2CCC(C(=O)c3ccc(F)cc3)CC2)c(=O)c2cscc21 [Example 14, 3-[2-[4-(4-Fluorobenzoyl)piperidin-1-yl]ethyl]-1-methylthieno[3,4-d]pyrimidine-2,4-dione] | 31% | – | 40 nM | < 10 mg/kg | – | 7 nM | 0.018 mg/kg | – | – | 2.96 mg/kg, p.o. | – | – | – | –
5 | O=c1[nH]c2ccsc2c(=O)n1CCN1CCC(=C(c2ccc(F)cc2)c2ccc(F)cc2)CC1 [Example 5, 3-[2-[4-[Bis(4-fluorophenyl)methylene]piperidin-1-yl]ethyl]thieno[3,2-d]pyrimidine-2,4-dione] | 3% | 0.1 µM | 1800 nM | > 10 mg/kg | – | 7 nM | 0.017 mg/kg | – | – | 1.78 mg/kg, p.o. | – | – | – | –
6 | O=C(c1ccc(F)cc1)C1CCN(CCn2c(=O)[nH]c3cscc3c2=O)CC1 [Example 10, 3-[2-[4-(4-Fluorobenzoyl)piperidin-1-yl]ethyl]thieno[3,4-d]pyrimidine-2,4-dione] | – | 0.00524 µM | 20 nM | < 10 mg/kg | – | 0.33 nM | 0.888 mg/kg | – | – | 0.63 mg/kg, p.o. | – | – | – | 12000 nM
7 | O=c1[nH]c2sccc2c(=O)n1CCN1CCC(=C(c2ccc(F)cc2)c2ccc(F)cc2)CC1 [Example 6, 3-[2-[4-[Bis(4-fluorophenyl)methylene]piperidin-1-yl]ethyl]thieno[2,3-d]pyrimidine-2,4-dione] | 24% | 0.00899 µM | 4500 nM | > 3 mg/kg | – | 0.8 nM | 0.23 mg/kg | – | – | – | – | – | -13% | –
8 | O=c1[nH]c2cscc2c(=O)n1CCN1CCC(=C(c2ccc(F)cc2)c2ccc(F)cc2)CC1 [Example 4, 3-[2-[4-[Bis(4-fluorophenyl)methylene]piperidin-1-yl]ethyl]thieno[3,4-d]pyrimidine-2,4-dione] | 20% | 0.0165 µM | 5300 nM | > 10 mg/kg | – | 2.8 nM | 0.16 mg/kg | – | – | ≈ 10 mg/kg, p.o. | – | – | – | –
9 | CC(=O)n1c(=O)n(CCN2CCC(C(=O)c3ccc(F)cc3)CC2)c(=O)c2cscc21 [Example 11, 1-Acetyl-3-[2-[4-(4-fluorobenzoyl)piperidin-1-yl]ethyl]thieno[3,4-d]pyrimidine-2,4-dione] | 0% | – | 90 nM | 10.0 mg/kg | – | 12.5 nM | 0.029 mg/kg | – | – | – | – | – | – | –
